Key:
[1] = xn = mol fraction of the nth substance listed; conditions: 298.15 K, 101 kPa, Liquid
[2] = excess molar enthalpy (molar enthalpy of mixing); xn = mol fraction of the nth substance listed; conditions: 298.15 K, 101 kPa, Liquid

CCCCOC(=O)CCC [butyl butanoate] + ClCCCCl
[1]
Conditions	mass density [kg/m3]
x1 = 0.0357	1159.7
x1 = 0.0715	1141.38
x1 = 0.1103	1122.7
x1 = 0.1503	1104.39
x1 = 0.1936	1085.72
x1 = 0.2376	1067.78
x1 = 0.2869	1048.84
x1 = 0.3371	1030.74
x1 = 0.3921	1012.12
x1 = 0.4496	993.89
x1 = 0.5117	975.49
x1 = 0.5785	957.03
x1 = 0.6494	938.78
x1 = 0.7262	920.43
x1 = 0.8114	901.61
x1 = 0.8978	884.02

ClCCCCCl [1,4-dichlorobutane] + CCCCOC=O
Conditions	excess molar enthalpy [kcal/mol]	mass density [kg/m3]
[1], x2 = 0.0582	–	1119.16
[1], x2 = 0.1167	–	1104.56
[1], x2 = 0.1724	–	1090.7
[1], x2 = 0.2316	–	1075.99
[1], x2 = 0.286	–	1062.54
[1], x2 = 0.345	–	1047.97
[1], x2 = 0.4055	–	1033.06
[1], x2 = 0.522	–	1004.48
[1], x2 = 0.5808	–	990.11
[1], x2 = 0.6408	–	975.5
[1], x2 = 0.6992	–	961.32
[1], x2 = 0.76	–	946.59
[1], x2 = 0.8183	–	932.5
[1], x2 = 0.8774	–	918.24
[1], x2 = 0.9363	–	904.07
[2], x2 = 0.049	0.00688	–
[2], x2 = 0.1112	0.0112	–
[2], x2 = 0.1816	0.0137	–
[2], x2 = 0.2472	0.0151	–
[2], x2 = 0.3099	0.0138	–
[2], x2 = 0.3701	0.0111	–
[2], x2 = 0.4257	0.00784	–
[2], x2 = 0.4725	0.00366	–
[2], x2 = 0.5121	7.17e-05	–
[2], x2 = 0.5471	-0.00237	–
[2], x2 = 0.5819	-0.00519	–
[2], x2 = 0.6245	-0.00827	–
[2], x2 = 0.6718	-0.0104	–
[2], x2 = 0.7351	-0.0123	–
[2], x2 = 0.8039	-0.0108	–
[2], x2 = 0.8728	-0.00805	–
[2], x2 = 0.9412	-0.00421	–

ClCCCCl [1,3-dichloropropane] + CCCCOC(C)=O
[1]
Conditions	mass density [kg/m3]
x2 = 0.046	1159.83
x2 = 0.0904	1142.04
x2 = 0.1361	1124.29
x2 = 0.1839	1106.48
x2 = 0.2336	1088.53
x2 = 0.2841	1070.96
x2 = 0.3935	1035.06
x2 = 0.5106	999.49
x2 = 0.6371	964.06
x2 = 0.7043	946.37
x2 = 0.7737	928.82
x2 = 0.8467	911.1
x2 = 0.923	893.45

ClCCCCCl [1,4-dichlorobutane] + CCCCOC(=O)CC
[1]
Conditions	mass density [kg/m3]
x2 = 0.0475	1117.36
x2 = 0.0925	1102.34
x2 = 0.1874	1072.01
x2 = 0.239	1056.26
x2 = 0.29	1041.21
x2 = 0.3443	1025.65
x2 = 0.4006	1010.07
x2 = 0.5171	979.4
x2 = 0.5798	963.71
x2 = 0.6418	948.74
x2 = 0.7075	933.4
x2 = 0.8474	902.46
x2 = 0.8829	894.96
x2 = 0.9206	887.11
x2 = 0.9575	879.61

CCCCOC(=O)CCC [butyl butanoate] + ClCCCCCl
[1]
Conditions	mass density [kg/m3]
x1 = 0.0415	1117.54
x1 = 0.0836	1101.67
x1 = 0.1727	1070.09
x1 = 0.2202	1054.28
x1 = 0.322	1022.51
x1 = 0.3752	1006.99
x1 = 0.4319	991.17
x1 = 0.4904	975.58
x1 = 0.554	959.43
x1 = 0.6186	943.82
x1 = 0.7579	912.57
x1 = 0.8338	896.78
x1 = 0.9131	881.09
